According to patent US8076487B2, “Pyridone derivative and herbicide” (Kumiai Chemical Industry Co., Ltd., priority 2006, dated 2011):

Tests used:
Type in all cases: in vivo
[1] = tested on: slender amaranth (Amaranthus viridis L.); test: Test Example 3: herbicidal effect by application to upland field (foliage treatment); conditions: foliage treatment, 1,000 g active ingredient per 1 hectare, 14th day after application, greenhouse
In short: (§1)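 A single foliar application of a water-diluted wettable powder, at 1,000 g of active ingredient per hectare, was made to plants raised for two weeks from seed in field soil. Herbicidal activity was judged visually after a further 14 days in the greenhouse.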

[2] = tested on: green foxtail (Setaria viridis (L.) P. Beauv.); test: as above; conditions: foliage treatment, 1,000 g active ingredient per 1 hectare, 14th day after application, greenhouse
In short: as §1

[3] = tested on: barnyardgrass (Echinochloa crus-galli (L.) P. Beauv. var. crus-galli); test: as above; conditions: foliage treatment, 1,000 g active ingredient per 1 hectare, 14th day after application, greenhouse
In short: as §1

[4] = tested on: velvetleaf (Abutilon theophrasti medicus); test: as above; conditions: foliage treatment, 1,000 g active ingredient per 1 hectare, 14th day after application, greenhouse
In short: as §1

[5] = tested on: slender amaranth (Amaranthus viridis L.); test: Test Example 2: herbicidal effect by soil application to upland field; conditions: soil surface spray, upland field soil, 1,000 g active ingredient per hectare, 21st day after application
In short: (§2)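 Using a small sprayer, we treat the soil surface of pots just after sowing and covering seeds. The aqueous wettable powder supplies 1,000 g a.i./ha in 1,000 L water/ha; after greenhouse growth, injury is scored on day 21 using a standard rating.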

[6] = tested on: green foxtail (Setaria viridis (L.) P. Beauv.); test: as above; conditions: soil surface spray, upland field soil, 1,000 g active ingredient per hectare, 21st day after application
In short: as §2

[7] = tested on: barnyardgrass (Echinochloa crus-galli (L.) P. Beauv. var. crus-galli); test: as above; conditions: soil surface spray, upland field soil, 1,000 g active ingredient per hectare, 21st day after application
In short: as §2

[8] = tested on: velvetleaf (Abutilon theophrasti medicus); test: as above; conditions: soil surface spray, upland field soil, 1,000 g active ingredient per hectare, 21st day after application
In short: as §2

[9] = tested on: Japanese bulrush (Scirpus juncoides Roxb.); test: Test Example 1: herbicidal effect by soil application to paddy field; conditions: paddy field soil application; active ingredient 1,000 g per 1 hectare; wettable powder added dropwise to water surface the day after sowing; examined on the 21st day after application
In short: (§3)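 Under greenhouse conditions, seeds sown on puddled paddy soil in 100 cm2 pots under 3 cm of standing water received the test compound; injury was assessed with a standard scoring scheme three weeks (day 21) after treatment.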

[10] = tested on: heartshape false pickerelweed (Monochoria vaginalis (Burm.f.) C.Presl); test: as above; conditions: paddy field soil application; active ingredient 1,000 g per 1 hectare; wettable powder added dropwise to water surface the day after sowing; examined on the 21st day after application
In short: as §3

[11] = tested on: early watergrass (Echinochloa oryzicola Vasing); test: as above; conditions: paddy field soil application; active ingredient 1,000 g per 1 hectare; wettable powder added dropwise to water surface the day after sowing; examined on the 21st day after application
In short: as §3

Row | SMILES | herbicidal effect, Slender Amaranth [1] | herbicidal effect, Green Foxtail [2] | herbicidal effect, Barnyardgrass [3] | herbicidal effect, Velvetleaf [4] | herbicidal effect (index), Slender Amaranth [5] | herbicidal effect (index), Green Foxtail [6] | herbicidal effect (index), Barnyardgrass [7] | herbicidal effect (index), Velvetleaf [8] | herbicidal effect, Scirpus juncoides Roxb. [9] | herbicidal effect, Monochoria vaginalis (Burm. f.) C. Presl [10] | herbicidal effect, Echinochloa oryzicola Vasing [11]
1 | O=C1CCCC(O)=C1C(=O)c1ccc(C(F)(F)F)n(CCc2ccccc2)c1=O [I-129] | 5 (90% or more of herbicidal effect and crop phytotoxicity) | 5 (90% or more of herbicidal effect and crop phytotoxicity) | 5 (90% or more of herbicidal effect and crop phytotoxicity) | 5 (90% or more of herbicidal effect and crop phytotoxicity) | 5 (90% or more of herbicidal effect and crop phytotoxicity) | 4 (70 to less than 90% of herbicidal effect and crop phytotoxicity) | 5 (90% or more of herbicidal effect and crop phytotoxicity) | 5 (90% or more of herbicidal effect and crop phytotoxicity) | 5 (90% or more of herbicidal effect and crop phytotoxicity) | 4 (70 to less than 90% of herbicidal effect and crop phytotoxicity) | 5 (90% or more of herbicidal effect and crop phytotoxicity)
2 | CON=CCn1c(C(F)(F)F)ccc(C(=O)C2=C(O)CCCC2=O)c1=O [I-133] | 5 (90% or more of herbicidal effect and crop phytotoxicity) | 4 (70 to less than 90% of herbicidal effect and crop phytotoxicity) | 5 (90% or more of herbicidal effect and crop phytotoxicity) | 5 (90% or more of herbicidal effect and crop phytotoxicity) | 5 (90% or more of herbicidal effect and crop phytotoxicity) | 4 (70 to less than 90% of herbicidal effect and crop phytotoxicity) | 5 (90% or more of herbicidal effect and crop phytotoxicity) | 5 (90% or more of herbicidal effect and crop phytotoxicity) | 5 (90% or more of herbicidal effect and crop phytotoxicity) | 5 (90% or more of herbicidal effect and crop phytotoxicity) | 5 (90% or more of herbicidal effect and crop phytotoxicity)
3 | COC(Cn1c(C(F)(F)F)ccc(C(=O)C2=C(O)CCCC2=O)c1=O)OC [I-137] | 5 (90% or more of herbicidal effect and crop phytotoxicity) | 4 (70 to less than 90% of herbicidal effect and crop phytotoxicity) | 5 (90% or more of herbicidal effect and crop phytotoxicity) | 5 (90% or more of herbicidal effect and crop phytotoxicity) | 5 (90% or more of herbicidal effect and crop phytotoxicity) | 5 (90% or more of herbicidal effect and crop phytotoxicity) | 5 (90% or more of herbicidal effect and crop phytotoxicity) | 5 (90% or more of herbicidal effect and crop phytotoxicity) | 5 (90% or more of herbicidal effect and crop phytotoxicity) | 5 (90% or more of herbicidal effect and crop phytotoxicity) | 5 (90% or more of herbicidal effect and crop phytotoxicity)
4 | Cc1cc(-n2c(C(F)(F)F)ccc(C(=O)C3=C(O)CCCC3=O)c2=O)no1 [I-142] | 5 (90% or more of herbicidal effect and crop phytotoxicity) | 5 (90% or more of herbicidal effect and crop phytotoxicity) | 5 (90% or more of herbicidal effect and crop phytotoxicity) | 5 (90% or more of herbicidal effect and crop phytotoxicity) | 5 (90% or more of herbicidal effect and crop phytotoxicity) | 5 (90% or more of herbicidal effect and crop phytotoxicity) | 5 (90% or more of herbicidal effect and crop phytotoxicity) | 5 (90% or more of herbicidal effect and crop phytotoxicity) | 5 (90% or more of herbicidal effect and crop phytotoxicity) | 5 (90% or more of herbicidal effect and crop phytotoxicity) | 5 (90% or more of herbicidal effect and crop phytotoxicity)
5 | O=C1CCCC(O)=C1C(=O)c1ccc(C(F)(F)F)n(-c2ccsc2)c1=O [I-148] | 5 (90% or more of herbicidal effect and crop phytotoxicity) | 5 (90% or more of herbicidal effect and crop phytotoxicity) | 5 (90% or more of herbicidal effect and crop phytotoxicity) | 5 (90% or more of herbicidal effect and crop phytotoxicity) | 5 (90% or more of herbicidal effect and crop phytotoxicity) | 5 (90% or more of herbicidal effect and crop phytotoxicity) | 5 (90% or more of herbicidal effect and crop phytotoxicity) | 5 (90% or more of herbicidal effect and crop phytotoxicity) | 5 (90% or more of herbicidal effect and crop phytotoxicity) | 5 (90% or more of herbicidal effect and crop phytotoxicity) | 5 (90% or more of herbicidal effect and crop phytotoxicity)
6 | Cc1ccsc1-n1c(C(F)(F)F)ccc(C(=O)C2=C(O)CCCC2=O)c1=O [I-149] | 5 (90% or more of herbicidal effect and crop phytotoxicity) | 5 (90% or more of herbicidal effect and crop phytotoxicity) | 5 (90% or more of herbicidal effect and crop phytotoxicity) | 5 (90% or more of herbicidal effect and crop phytotoxicity) | 5 (90% or more of herbicidal effect and crop phytotoxicity) | 5 (90% or more of herbicidal effect and crop phytotoxicity) | 5 (90% or more of herbicidal effect and crop phytotoxicity) | 5 (90% or more of herbicidal effect and crop phytotoxicity) | 5 (90% or more of herbicidal effect and crop phytotoxicity) | 5 (90% or more of herbicidal effect and crop phytotoxicity) | 5 (90% or more of herbicidal effect and crop phytotoxicity)
7 | O=C1CCCC(O)=C1C(=O)c1ccc(C(F)(F)F)n(-c2ccccn2)c1=O [I-150] | 5 (90% or more of herbicidal effect and crop phytotoxicity) | 5 (90% or more of herbicidal effect and crop phytotoxicity) | 5 (90% or more of herbicidal effect and crop phytotoxicity) | 5 (90% or more of herbicidal effect and crop phytotoxicity) | 5 (90% or more of herbicidal effect and crop phytotoxicity) | 5 (90% or more of herbicidal effect and crop phytotoxicity) | 5 (90% or more of herbicidal effect and crop phytotoxicity) | 5 (90% or more of herbicidal effect and crop phytotoxicity) | 5 (90% or more of herbicidal effect and crop phytotoxicity) | 5 (90% or more of herbicidal effect and crop phytotoxicity) | 5 (90% or more of herbicidal effect and crop phytotoxicity)
8 | COc1cncc(-n2c(C(F)(F)F)ccc(C(=O)C3=C(O)CCCC3=O)c2=O)c1 [I-151] | 5 (90% or more of herbicidal effect and crop phytotoxicity) | 5 (90% or more of herbicidal effect and crop phytotoxicity) | 5 (90% or more of herbicidal effect and crop phytotoxicity) | 5 (90% or more of herbicidal effect and crop phytotoxicity) | 5 (90% or more of herbicidal effect and crop phytotoxicity) | 5 (90% or more of herbicidal effect and crop phytotoxicity) | 5 (90% or more of herbicidal effect and crop phytotoxicity) | 5 (90% or more of herbicidal effect and crop phytotoxicity) | 5 (90% or more of herbicidal effect and crop phytotoxicity) | 5 (90% or more of herbicidal effect and crop phytotoxicity) | 5 (90% or more of herbicidal effect and crop phytotoxicity)
